Data taken from patent US20110098296A1, “Thiazole And Oxazole Kinase Inhibitors” (priority 2007, published 2011).

Columns and labels:
Colo205 tumor cells = test: Method A: Methylene Blue Growth Inhibition Assay, Colo205; assay type: cell-based; conditions: Homo sapiens, COLO 205, 72 h, 3 days
Method: (§1) Human breast (BT474) and head and neck (HN5) tumor cells were cultured in low glucose DMEM (Life Technologies 12320-032) containing 10% fetal bovine serum (FBS). Human colon tumor cells (Colo205) were cultured in DMEM (Invitrogen, 10564) containing 10% FBS. The SV40 transformed human mammary epithelial cell line HB4a was transfected with either human H-ras cDNA (HB4a r4.2) or the human c-ErbB2 cDNA (HB4a c5.2). The HB4a clones were cultured in RPMI containing 10% FBS, insulin (5 g/mL), hydrocortisone (5 g/mL), supplemented with the selection agent hygromycin B (50 g/mL). All lines were grown in a humidified incubator at 37° C. in 95% air, 5% CO2. Cells were harvested using trypsin/EDTA, counted using a haemocytometer, and plated in 100 μL of the appropriate media, at the following densities, in a 96-well tissue culture plate (Falcon 3075): BT474 10,000 cells/well, HN5 3,000 cells/well. The next day, compounds were diluted in DMEM containing […] gentamicin, at twice the final required concentration, from 10 mM stock solutions in DMSO. 100 μl/well of these dilutions were added to the 100 μL of media currently on the cell plates. Medium containing 0.6% DMSO was added to control wells. Compounds diluted in DMEM were added to all cell lines. The final concentration of DMSO in all wells was 0.3%. Cells were returned to the incubator (37° C., […]) for 3 days. Medium was then removed by aspiration. Cell biomass was estimated by staining cells with 90 μL/well methylene blue (Sigma M9140, 0.5% in 1:1 EtOH:H2O), and incubation at room temperature for at least 30 minutes. Stain was removed, and the plates rinsed by immersion in deionized H2O and air-dried. To release stain from the cells 100 μL of solubilization solution were added (1% N-lauroyl sarcosine, sodium salt, Sigma L5125, in PBS), and plates were shaken gently for about 30 minutes. Optical density at 620 nm was measured on a microplate reader. Percent inhibition of cell growth was calculated relative to vehicle-treated control wells. Concentration of compound that inhibits 50% of control cell growth (IC50) was interpolated using nonlinear regression (Levenberg-Marquardt) and the equation,
(§2) y=Vmax*(1−(x/(K+x)))+Y2, where “K” was equal to the IC50.

ErbB2 = target: T1, ErbB2 (Homo sapiens, UniProt P04626); test: ErbB-2 substrate phosphorylation assay (HTRF); assay type: biochemical
T1 construct: made in house; host or cells: baculovirus expression system
T1 sequence (P04626 23-1255): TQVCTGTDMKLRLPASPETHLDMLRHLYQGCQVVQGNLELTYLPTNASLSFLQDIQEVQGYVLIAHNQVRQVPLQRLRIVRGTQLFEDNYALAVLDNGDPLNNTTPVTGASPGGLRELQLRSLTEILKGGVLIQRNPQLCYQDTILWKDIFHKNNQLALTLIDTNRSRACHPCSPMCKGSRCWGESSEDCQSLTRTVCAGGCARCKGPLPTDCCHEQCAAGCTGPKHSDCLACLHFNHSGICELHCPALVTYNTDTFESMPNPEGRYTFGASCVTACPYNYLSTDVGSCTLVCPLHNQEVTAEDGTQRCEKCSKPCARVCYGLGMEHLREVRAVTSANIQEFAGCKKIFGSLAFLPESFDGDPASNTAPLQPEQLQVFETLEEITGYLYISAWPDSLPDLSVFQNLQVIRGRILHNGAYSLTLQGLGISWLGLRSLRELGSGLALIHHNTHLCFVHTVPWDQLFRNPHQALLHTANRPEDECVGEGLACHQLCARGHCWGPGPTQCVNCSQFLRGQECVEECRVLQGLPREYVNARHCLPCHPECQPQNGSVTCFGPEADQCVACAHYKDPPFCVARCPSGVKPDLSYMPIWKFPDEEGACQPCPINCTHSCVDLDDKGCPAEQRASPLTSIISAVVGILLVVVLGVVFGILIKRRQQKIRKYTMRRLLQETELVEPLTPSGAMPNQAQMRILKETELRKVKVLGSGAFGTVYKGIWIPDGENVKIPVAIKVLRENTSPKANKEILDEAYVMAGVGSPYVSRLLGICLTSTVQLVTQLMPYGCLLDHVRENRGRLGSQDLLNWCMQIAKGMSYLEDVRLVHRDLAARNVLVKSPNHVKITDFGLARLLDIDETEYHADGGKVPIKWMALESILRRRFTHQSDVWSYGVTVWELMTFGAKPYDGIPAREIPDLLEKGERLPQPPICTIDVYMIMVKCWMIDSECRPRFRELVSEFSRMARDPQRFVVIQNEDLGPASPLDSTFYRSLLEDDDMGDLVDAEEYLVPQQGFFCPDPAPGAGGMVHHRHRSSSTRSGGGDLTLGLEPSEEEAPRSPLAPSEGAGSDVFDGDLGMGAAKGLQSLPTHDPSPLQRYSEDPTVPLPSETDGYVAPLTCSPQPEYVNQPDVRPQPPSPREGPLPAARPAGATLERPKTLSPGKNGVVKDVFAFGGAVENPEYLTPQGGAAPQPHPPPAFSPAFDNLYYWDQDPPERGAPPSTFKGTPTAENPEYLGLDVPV
Procedure, shortened: (§3)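 Baculovirus-expressed kinase (0.8 nM EGFR or 10 nM ErbB2 in enzyme mix) with Peptide C 0.8 μM and ATP 20 μM (substrate-mix levels), MOPS pH 7.5, MnCl2; 90 min, 20 °C, HTRF anti-phosphotyrosine. Method A adds 1 h enzyme–compound preincubation; B none. pIC50, final compound 0.00027–47.6 μM.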

EGFR = target: T2, EGFR (Homo sapiens, UniProt P00533); test: EGFR substrate phosphorylation assay (HTRF); assay type: biochemical
T2 construct: made in house; host or cells: baculovirus expression system
T2 sequence (P00533 25-1210): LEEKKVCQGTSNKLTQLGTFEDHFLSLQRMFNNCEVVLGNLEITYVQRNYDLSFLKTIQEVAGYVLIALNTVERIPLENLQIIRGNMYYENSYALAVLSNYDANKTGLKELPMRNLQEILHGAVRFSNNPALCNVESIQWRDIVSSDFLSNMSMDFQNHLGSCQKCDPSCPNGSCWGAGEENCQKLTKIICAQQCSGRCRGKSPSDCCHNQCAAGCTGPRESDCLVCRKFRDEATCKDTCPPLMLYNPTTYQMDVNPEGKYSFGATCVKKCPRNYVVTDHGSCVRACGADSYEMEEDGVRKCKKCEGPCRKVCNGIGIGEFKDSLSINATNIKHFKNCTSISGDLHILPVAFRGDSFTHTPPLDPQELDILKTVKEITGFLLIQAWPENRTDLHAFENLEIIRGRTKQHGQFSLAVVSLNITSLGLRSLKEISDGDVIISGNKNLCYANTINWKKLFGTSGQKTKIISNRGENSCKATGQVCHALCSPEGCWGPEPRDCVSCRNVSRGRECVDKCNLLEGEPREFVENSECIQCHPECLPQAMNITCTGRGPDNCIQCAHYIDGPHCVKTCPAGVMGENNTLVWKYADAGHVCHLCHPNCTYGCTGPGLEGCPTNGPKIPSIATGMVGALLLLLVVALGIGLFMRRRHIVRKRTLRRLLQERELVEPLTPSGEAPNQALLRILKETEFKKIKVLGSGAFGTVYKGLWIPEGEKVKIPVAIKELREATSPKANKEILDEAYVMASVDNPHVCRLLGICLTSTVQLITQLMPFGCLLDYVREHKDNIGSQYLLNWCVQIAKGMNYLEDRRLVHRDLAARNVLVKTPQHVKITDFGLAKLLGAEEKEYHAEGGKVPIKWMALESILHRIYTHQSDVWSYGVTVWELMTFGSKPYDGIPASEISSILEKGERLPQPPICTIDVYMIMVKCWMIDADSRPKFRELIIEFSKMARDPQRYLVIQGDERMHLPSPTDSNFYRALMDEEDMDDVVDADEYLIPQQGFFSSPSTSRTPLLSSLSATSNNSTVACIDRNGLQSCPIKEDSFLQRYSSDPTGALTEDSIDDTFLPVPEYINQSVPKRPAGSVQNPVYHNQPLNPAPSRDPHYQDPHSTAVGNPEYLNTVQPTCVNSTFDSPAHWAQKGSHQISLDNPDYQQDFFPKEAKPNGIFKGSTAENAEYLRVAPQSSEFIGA
Procedure, shortened: as §3

HN5 tumor cells = test: Method A: Methylene Blue Growth Inhibition Assay, HN5; assay type: cell-based; conditions: Homo sapiens, 72 h, 3 days
Method: as §1, §2

BT474 tumor cells = test: Method A: Methylene Blue Growth Inhibition Assay, BT474; assay type: cell-based; conditions: Homo sapiens, BT-474, 72 h, 3 days
Method: as §1, §2

[1] = Method (A): Enzyme Mix incubated with compound at 20° C. for 1 hr, reaction started by adding Substrate Mix
[2] = Method (B): Substrate Mix added to compound first, reaction started by adding Enzyme Mix

IC50 (Colo205 tumor cells) | IC50 (ErbB2; [1]) | IC50 (EGFR; [1]) | IC50 (HN5 tumor cells) | IC50 (BT474 tumor cells) | IC50 (ErbB2; [2]) | IC50 (EGFR; [2]) | SMILES
< 0.1 µM | < 0.1 µM | < 0.1 µM | < 0.1 µM | < 0.1 µM |  |  | Nc1nc(-c2cccc(NC(=O)c3c(F)cccc3F)c2)c(-c2ccnc(Nc3cccc(-c4cnco4)c3)n2)s1 [Example 14, N-{3-[2-Amino-5-(2-{[3-(1,3-oxazol-5-yl)phenyl]amino}-4-pyrimidinyl)-1,3-thiazol-4-yl]phenyl}-2,6-difluorobenzamide]
0.1 to 1 µM | < 0.1 µM | < 0.1 µM | < 0.1 µM | < 0.1 µM |  |  | Nc1nc(-c2cccc(NC(=O)c3c(F)cccc3F)c2)c(-c2ccnc(Nc3ccc4c(c3)CNCC4)n2)s1 [Example 21, N-(3-{2-Amino-5-[2-(1,2,3,4-tetrahydro-7-isoquinolinylamino)-4-pyrimidinyl]-1,3-thiazol-4-yl}phenyl)-2,6-difluorobenzamide]
> 1 µM | < 0.1 µM | < 0.1 µM | < 0.1 µM | 0.1 to 1 µM |  |  | COc1ccc(Nc2nccc(-c3sc(N)nc3-c3cccc(NC(=O)c4cc(F)ccc4F)c3)n2)cc1F [Example 50, N-{3-[2-Amino-5-(2-{[3-fluoro-4-(methyloxy)phenyl]amino}-4-pyrimidinyl)-1,3-thiazol-4-yl]phenyl}-2,5-difluorobenzamide]
> 1 µM | < 0.1 µM | < 0.1 µM | > 1 µM | 0.1 to 1 µM |  |  | CNc1nc(-c2cccc(NC(=O)c3cc(F)ccc3F)c2)c(-c2ccnc(Nc3ccc(OC)c(F)c3)n2)s1 [Example 51, 2,5-Difluoro-N-{3-[5-(2-{[3-fluoro-4-(methyloxy)phenyl]amino}-4-pyrimidinyl)-2-(methylamino)-1,3-thiazol-4-yl]phenyl}benzamide]
0.1 to 1 µM | < 0.1 µM | < 0.1 µM | 0.1 to 1 µM | < 0.1 µM |  |  | COCCNc1nc(-c2cccc(NC(=O)c3cc(F)ccc3F)c2)c(-c2ccnc(Nc3ccc(OC)c(F)c3)n2)s1 [Example 52, 2,5-Difluoro-N-[3-(5-(2-{[3-fluoro-4-(methyloxy)phenyl]amino}-4-pyrimidinyl)-2-{[2-(methyloxy)ethyl]amino}-1,3-thiazol-4-yl)phenyl]benzamide]
0.1 to 1 µM | < 0.1 µM | < 0.1 µM | < 0.1 µM | < 0.1 µM |  |  | COc1ccc(Nc2nccc(-c3sc(NCCN4CCOCC4)nc3-c3cccc(NC(=O)c4cc(F)ccc4F)c3)n2)cc1F [Example 53, 2,5-Difluoro-N-[3-(5-(2-{[3-fluoro-4-(methyloxy)phenyl]amino}-4-pyrimidinyl)-2-{[2-(4-morpholinyl)ethyl]amino}-1,3-thiazol-4-yl)phenyl]benzamide]
> 1 µM | < 0.1 µM | < 0.1 µM | < 0.1 µM | < 0.1 µM |  |  | Nc1nc(-c2cccc(NC(=O)c3cc(F)ccc3F)c2)c(-c2ccnc(Nc3cccc(-c4cnco4)c3)n2)s1 [Example 54]
0.1 to 1 µM | < 0.1 µM | < 0.1 µM | < 0.1 µM | < 0.1 µM |  |  | Nc1nc(-c2cccc(NC(=O)c3cc(F)ccc3F)c2)c(-c2ccnc(Nc3ccc4c(c3)CNCC4)n2)s1 [Example 57]
0.1 to 1 µM | < 0.1 µM | < 0.1 µM | < 0.1 µM | < 0.1 µM |  |  | COCCOc1ccc(Nc2nccc(-c3sc(N)nc3-c3cccc(NC(=O)c4cc(F)ccc4F)c3)n2)cc1F [Example 58, N-[3-(2-Amino-5-{2-[(3-fluoro-4-{[2-(methyloxy)ethy]oxy}phenyl)amino]-4-pyrimidinyl}-1,3-thiazol-4-yl)phenyl]-2,5-difluorobenzamide]
0.1 to 1 µM | < 0.1 µM | < 0.1 µM | < 0.1 µM | 0.1 to 1 µM |  |  | CN(C)CCCNc1ccc(Nc2nccc(-c3sc(N)nc3-c3cccc(NC(=O)C4CCCCC4)c3)n2)cc1F [Example 60]
0.1 to 1 µM | < 0.1 µM | < 0.1 µM | < 0.1 µM | 0.1 to 1 µM |  |  | CN(C)CCOc1ccc(Nc2nccc(-c3sc(N)nc3-c3cccc(NC(=O)C4CCCCC4)c3)n2)cc1Cl [Example 61]
0.1 to 1 µM | < 0.1 µM | < 0.1 µM | < 0.1 µM | 0.1 to 1 µM |  |  | Nc1nc(-c2cccc(NC(=O)C3CCCCC3)c2)c(-c2ccnc(Nc3cccc(-c4cnco4)c3)n2)s1 [Example 62, N-{3-[2-Amino-5-(2-{[3-(1,3-oxazol-5-yl)phenyl]amino}-4-pyrimidinyl)-1,3-thiazol-4-yl]phenyl}cyclohexanecarboxamide]
0.1 to 1 µM | < 0.1 µM | < 0.1 µM | < 0.1 µM | < 0.1 µM |  |  | CN(C)CCCNc1ccc(Nc2nccc(-c3sc(N)nc3-c3cccc(NC(=O)c4cccn4C)c3)n2)cc1F [Example 65, N-[3-(2-Amino-5-{2-[(4-{[3-(dimethylamino)propyl]amino}-3-fluorophenyl)amino]-4-pyrimidinyl}-1,3-thiazol-4-yl)phenyl]-1-methyl-1H-pyrrole-2-carboxamide]
0.1 to 1 µM | < 0.1 µM | < 0.1 µM | 0.1 to 1 µM | 0.1 to 1 µM |  |  | CN(C)CCOc1ccc(Nc2nccc(-c3sc(N)nc3-c3cccc(OCc4ccccc4)c3)n2)cc1Cl [Example 70, 4-(2-Amino-4-{3-[(phenylmethyl)oxy]phenyl}-1,3-thiazol-5-yl)-N-(3-chloro-4-{[2-(dimethylamino)ethyl]oxy}phenyl)-2-pyrimidinamine]
> 1 µM | < 0.1 µM | < 0.1 µM | 0.1 to 1 µM | 0.1 to 1 µM |  |  | Nc1nc(-c2cccc(OCc3ccccc3)c2)c(-c2ccnc(Nc3ccc4c(c3)CNCC4)n2)s1 [Example 71, N-[4-(2-Amino-4-{3-[(phenylmethyl)oxy]phenyl}-1,3-thiazol-5-yl)-2-pyrimidinyl]-1,2,3,4-tetrahydro-7-isoquinolinamine]
> 1 µM |  |  | < 0.1 µM | 0.1 to 1 µM | 0.1 to 1 µM | 0.1 to 1 µM | COc1ccc(Nc2nccc(-c3scnc3-c3cccc(NC(=O)c4c(F)cccc4F)c3)n2)cc1F [Example 87, 2,6-Difluoro-N-{3-[5-(2-{[3-fluoro-4-(methyloxy)phenyl]amino}-4-pyrimidinyl)-1,3-thiazol-4-yl]phenyl}benzamide]
